Assay [1] deals with Acetylcholinesterase (Electrophorus electricus, UniProt O42275). The assay is described as follows: AChE and BChE Inhibitory Activities.
Assay [2] addresses Carboxylic ester hydrolase (Equus caballus, UniProt Q9N1N9). The assay is described as follows: AChE and BChE Inhibitory Activities.

pIC50: −log10 of the molar value.

As usually defined, the pIC50 is the IC50 on a negative log10 scale, so that one unit is a factor of ten.

Sequence of Acetylcholinesterase (O42275 whole entry): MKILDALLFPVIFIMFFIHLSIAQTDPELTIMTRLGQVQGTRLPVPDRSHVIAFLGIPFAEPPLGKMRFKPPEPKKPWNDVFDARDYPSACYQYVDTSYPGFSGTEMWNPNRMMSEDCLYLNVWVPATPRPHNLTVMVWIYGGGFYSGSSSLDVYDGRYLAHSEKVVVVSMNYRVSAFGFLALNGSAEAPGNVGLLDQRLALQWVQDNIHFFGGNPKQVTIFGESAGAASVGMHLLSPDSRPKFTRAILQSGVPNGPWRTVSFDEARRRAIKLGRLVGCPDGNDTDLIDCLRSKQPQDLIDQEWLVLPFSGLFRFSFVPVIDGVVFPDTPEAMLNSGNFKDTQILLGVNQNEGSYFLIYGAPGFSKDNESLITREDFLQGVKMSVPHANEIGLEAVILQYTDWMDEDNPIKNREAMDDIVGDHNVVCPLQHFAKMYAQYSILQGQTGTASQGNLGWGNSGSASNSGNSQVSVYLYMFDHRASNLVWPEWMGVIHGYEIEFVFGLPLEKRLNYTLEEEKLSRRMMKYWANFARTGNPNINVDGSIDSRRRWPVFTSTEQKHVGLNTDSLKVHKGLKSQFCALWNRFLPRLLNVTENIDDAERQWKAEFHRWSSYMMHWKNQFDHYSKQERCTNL
Sequence of Carboxylic ester hydrolase (Q9N1N9 whole entry): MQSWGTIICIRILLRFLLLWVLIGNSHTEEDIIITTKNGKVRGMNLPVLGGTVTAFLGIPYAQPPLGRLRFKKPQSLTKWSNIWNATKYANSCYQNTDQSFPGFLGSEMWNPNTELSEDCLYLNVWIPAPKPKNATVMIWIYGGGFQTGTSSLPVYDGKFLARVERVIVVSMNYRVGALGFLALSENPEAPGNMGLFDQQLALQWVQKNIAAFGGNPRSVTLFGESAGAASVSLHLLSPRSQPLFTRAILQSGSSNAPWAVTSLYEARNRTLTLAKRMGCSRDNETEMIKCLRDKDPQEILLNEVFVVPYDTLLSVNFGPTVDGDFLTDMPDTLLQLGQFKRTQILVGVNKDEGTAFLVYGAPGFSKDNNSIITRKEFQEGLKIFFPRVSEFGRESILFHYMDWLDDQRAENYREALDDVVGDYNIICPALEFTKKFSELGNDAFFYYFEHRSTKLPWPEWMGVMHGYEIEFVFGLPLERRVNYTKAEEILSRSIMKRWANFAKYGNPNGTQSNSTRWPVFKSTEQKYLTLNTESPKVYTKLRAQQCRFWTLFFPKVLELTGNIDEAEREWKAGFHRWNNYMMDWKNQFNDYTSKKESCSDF

In the case of `O=C(NC(=S)Nc1ccccc1[N+](=O)[O-])c1cc2ccccc2oc1=O` [1-(2-Oxo-2H-chromene-3-carbonyl)-3-(2-nitrophenyl)thiourea (2j)], the pIC50 was 6.64 in assay [1] and 4.58 in assay [2].

Consider `O=C(NC(=S)Nc1ccccc1Cl)c1cc2ccccc2oc1=O` [1-(2-Oxo-2H-chromene-3-carbonyl)-3-(2-chlorophenyl)thiourea (2g)], for which the pIC50 in assay [1] was 5.14; in assay [2] it was 4.95.

For `O=C(NC(=S)Nc1cccc(Cl)c1)c1cc2ccccc2oc1=O` [1-(2-Oxo-2H-chromene-3-carbonyl)-3-(3-chlorophenyl)thiourea (2e)], the pIC50 in assay [1] is 7.40; in assay [2], 5.90.

On to `O=C(NC(=S)Nc1ccc(Cl)cc1)c1cc2ccccc2oc1=O` [1-(2-Oxo-2H-chromene-3-carbonyl)-3-(4-chlorophenyl)thiourea (2i)], for which the pIC50 in assay [1] was 5.29; in assay [2] it was 4.37.

In the case of `O=C(NC(=S)NC1CCCCC1)c1cc2ccccc2oc1=O` [1-(2-Oxo-2H-chromene-3-carbonyl)-3-(cyclohexyl)thiourea (2l)], the pIC50 in assay [1] is 5.16; in assay [2] it was 4.91.

Consider `COc1ccccc1NC(=S)NC(=O)c1cc2ccccc2oc1=O` [1-(2-Oxo-2H-chromene-3-carbonyl)-3-(2-methoxyphenyl)thiourea (2b)], for which the pIC50 is 4.88 in assay [1] and 7.22 in assay [2].

For `O=C(NC(=S)Nc1cccc(Cl)c1Cl)c1cc2ccccc2oc1=O` [1-(2-Oxo-2H-chromene-3-carbonyl)-3-(2,3-dichlorophenyl)thiourea (2d)], the values for the pIC50 in assay [1] and in assay [2] were 5.95 and 4.50, respectively.

As for `O=C(NC(=S)Nc1cccc(F)c1)c1cc2ccccc2oc1=O` [1-(2-Oxo-2H-chromene-3-carbonyl)-3-(3-fluorophenyl)thiourea (2c)], the pIC50 is 4.76 in assay [1] and 4.79 in assay [2].

For the compound `Cc1cccc(NC(=S)NC(=O)c2cc3ccccc3oc2=O)c1` [1-(2-Oxo-2H-chromene-3-carbonyl)-3-(3-methylphenyl)thiourea (2a)], the pIC50 is 6.07 in assay [1] and 5.67 in assay [2].

On to `COc1cccc(NC(=S)NC(=O)c2cc3ccccc3oc2=O)c1` [1-(2-Oxo-2H-chromene-3-carbonyl)-3-(3-methoxyphenyl)thiourea (2k)], for which the figures for the pIC50 in assay [1] and in assay [2] were 5.07 and 4.27, respectively.

As for `O=C(NC(=S)Nc1ccc(Cl)cc1Cl)c1cc2ccccc2oc1=O` [1-(2-Oxo-2H-chromene-3-carbonyl)-3-(2,4-dichlorophenyl)thiourea (2h)], the pIC50 in assay [1] is 5.21; in assay [2], 4.88.

Turning to `O=C(NC(=S)Nc1ccc(F)c(Cl)c1)c1cc2ccccc2oc1=O` [1-(2-Oxo-2H-chromene-3-carbonyl)-3-(3-chloro-4-fluorophenyl)thiourea (2f)], the figures for the pIC50 in assay [1] and in assay [2] were 6.12 and 6.08, respectively.
